Data reported in paper PMC5955586, “Transport of enniatin B and enniatin B1 across the blood-brain barrier and hints for neurotoxic effects in cerebral cells” (PLoS ONE, 2018).
Values joined by “and” are separate entries in the source; they are usually repeats but may differ in a detail not shown here. Identical values can stand only once. Like-named read-outs stand apart in the source and are kept apart here.

Columns and labels:
[1] = Pig feeding study, plasma concentration; assay type: in vivo; settings: worst case contamination 5.8 mg/kg ENN B, 18.3 mg/kg ENN B1
[2] = design: method as in PMID 24239892; settings: pigs, cited from earlier work
[3] = design: method as in PMID 27349679; settings: mice; cited from earlier work
HepG2 = system: HepG2; design: method as in PMID 21640785; settings: cited from earlier work
PBCEC monolayer = test: Transfer across PBCEC monolayer on Transwell filters (BBB model); assay type: in vitro ADME, porcine
[4] = design: method as in PMID 23598119; settings: oral intake 0.05 mg/kg b.w.; cited from earlier work
CCF-STTG1 cells = test: CCK-8 viability assay in CCF-STTG1; assay type: cell-based, human; settings: for concentration with highly significant cytotoxic effects / IC50: CCF-STTG1, 48 h; for IC50: Homo sapiens, CCK-8, read-out: IC50 (cellular viability)
Protocol: To test the viability and to define the working range for later transport studies ENN B/ENN B1 stock solutions in ACN were diluted to the respective concentrations with serum free culture medium (1% ACN). An astrocytoma cell line, CCF-STTG1 (ATCC, Manassas, USA), and HBMEC cell line (human brain microvascular endothelial cells, kindly provided by Prof. Dr. Karch, Institute of Hygiene, University of Muenster (WWU Muenster)) were cultivated in RPMI 1640 medium supplemented with 100 U/mL penicillin, 100 μg/mL streptomycin, 2 mM L-glutamine and 10% (v/v) fetal calf serum (FCS) (medium for HBMEC additionally supplemented with 1 mM Na-pyruvate) using standardized culture conditions (37°C, 5% CO2, saturated humidified atmosphere). Culture medium was changed every 2–3 d, and the cells were subcultivated after trypsination when they reached a microscopic confluence of approximately 80%. For the evaluation of cytotoxic effects of ENN B and B1 in CCF-STTG1 and HBMEC, Cell Counting Kit-8 (CCK-8, Dojindo Laboratories, Tokyo Japan) was applied. The assay was performed according to the manufacturer’s instructions with slight modifications.
Briefly, the cells were seeded in 96-well tissue culture plates in a density of 1 × 10^4 cells/well (CCF-STTG1) and 4 × 10^3 cells/well (HBMEC), respectively. The cells were allowed to grow for 24 h, then the culture medium was replaced by serum free medium (100 μL/well), and the cells were cultivated for another 24 h (37°C, 5% CO2, saturated humidified atmosphere) before treatment. The cells were treated with ENN B and ENN B1 in a concentration range from 0.1 μM to 10 μM and were incubated for 48 h. After toxin exposure, the toxin solution was exchanged with a dye solution WST-8 (CCK-8 solution, water soluble tetrazolium salt-8, 2-(2-methoxy-4-nitrophenyl)-3-)4-nitrophenyl)-5-(2,4-disulfophenyl)-2H-tetrazolium monosodium salt), 1:10 diluted with fresh serum free medium, which was added to the cells followed by incubation for 60 min at 37°C. WST-8 dye is reduced to a water-soluble formazan by cellular dehydrogenases of viable cells, which increases the absorbance at λ = 457 nm and was measured with an Infinite M200 PRO microplate reader with Tecan i-control software version 1.7.1.12 (Tecan, Crailsheim, Germany). The amount of formazan generated by the activity of dehydrogenases in cells is directly proportional to the number of viable cells per well. The results are normalized to a solvent treated negative control (1% ACN).

caspase-3 = test: Caspase-3 activity in CCF-STTG1 lysates; assay type: cell-based, human; settings: 48 h
Protocol: For studying caspase-3 activity CCF-STTG1 cells were seeded in 12 well tissue culture plates in a cell density of 2.25 × 10^5 cells/well. The cells were grown for 24 h until a confluence of at least 70% was reached, then the medium was changed to serum free medium (RPMI 1640 medium supplemented with 100 U/mL penicillin, 100 μg/mL streptomycin and 2 mM L-glutamine). Concentrations from 0.1 μM to 2.5 μM were chosen to prevent strong cytotoxic effects, which might interfere with the endpoint of interest. 24 h after adaption to serum free conditions, cells were incubated with ENN B and ENN B1. Caspase-3 activity was determined in lysates. […] 33 μL reaction solution were added to 30 μL of the supernatant and incubated for 1 and 2 h at 37°C, 5% CO2 and saturated humidified atmosphere and then measured at λex = 405 nm and λem = 520 nm (Infinite M200 PRO microplate reader). […] The results were calculated as μmol AFC/μg protein and normalized to the solvent treated control (ACN 0.25%).
For quantitation of the total protein content a bicinchoninic acid (BCA) assay kit (Sigma-Aldrich GmbH, Seelze, Germany) was applied. […] After that the absorbance was measured at 560 nm with a Infinite M200 PRO microplate reader (Tecan, Crailsheim, Germany).

[5] = design: method as in PMID 25757886; settings: ex vivo human skin; cited from earlier work
[6] = design: method as in PMID 21622627; settings: liver microsomes human, dog and rat; cited from earlier work

In the case of `CC[C@H](C)[C@H]1C(=O)O[C@H](C(C)C)C(=O)N(C)[C@@H](C(C)C)C(=O)O[C@H](C(C)C)C(=O)N(C)[C@@H](C(C)C)C(=O)O[C@H](C(C)C)C(=O)N1C` [ENN B1, enniatin B1], the theoretical plasma levels [1] is given as 0.641 μg/mL and 0.980 μM, the Tmax ([2]; oral) is given as 14.4 min and the ka ([2]; oral) is given as 4.66 h⁻¹. The oral bioavailability [2] was “up to 91%”, the “brain tissue distribution in the parenchyma” value [3] was 95% and the “remaining in the capillaries” value [3] was 5%. For the same compound, the IC50 (HepG2; read-out: IC50) was 8.5 µM, the “metabolites by high resolution mass spectrometry screening” value (PBCEC monolayer) was “no metabolites were detected” and the “concentration in pig plasma” value [4] was 0.035 μg/mL and 0.054 μM. The effect on viability (CCF-STTG1 cells; CCF-STTG1, 0.1 μM and 1 μM, 48 h) was “weak but significant effects”, the “concentration with highly significant cytotoxic effects” value (CCF-STTG1 cells) was no less than 2.5 µM and the IC50 (CCF-STTG1 cells) was 4.4 µM. For the same compound, the “maximum increase of caspase-3 activity (relative to solvent control)” value (caspase-3; CCF-STTG1, 1 μM) was 160%.

In the case of `CC(C)[C@H]1C(=O)O[C@H](C(C)C)C(=O)N(C)[C@@H](C(C)C)C(=O)O[C@H](C(C)C)C(=O)N(C)[C@@H](C(C)C)C(=O)O[C@H](C(C)C)C(=O)N1C` [ENN B, enniatin B], the theoretical plasma levels [1] is given as 0.423 μg/mL and 0.662 μM, the “brain tissue distribution in the parenchyma” value [3] is given as 95% and the “remaining in the capillaries” value [3] is given as 5%. The “permeation kp,v” value [5] was 9.44e-06 cm/h, the IC50 (HepG2) was “no IC50 could be calculated” and the metabolites formed [6] was “several phase I metabolites”. For the same compound, the “concentration in pig plasma” value [4] was 0.073 μg/mL and 0.114 μM, the “concentration with highly significant cytotoxic effects” value (CCF-STTG1 cells) was no less than 5 µM and the IC50 (CCF-STTG1 cells) was 8.9 µM. For the same compound, the “increase of caspase-3 activity compared to solvent control” value (caspase-3; CCF-STTG1, 2.5 μM) was 2.7 fold.
